Laboratory results as given in patent US20120303115A1 (priority 2011, published 2012).

What was measured:
[1] = Drug concentration in liquid formulations by liquid chromatography; type: physicochemical; conditions: water, Vitamin E TPGS as excipient, ethanol less than two percent
Method: Table 7, shown below, summarizes the concentrations of the excipient, the co-solvents and the drug for four different liquid formulations.
Another liquid formulation of sirolimus comprises water and ethanol as co-solvents and Vitamin E TPGS as the excipient. The liquid formulation was created utilizing the following process. Two hundred milligrams of sirolimus and two grams of ethanol were added to a pre-weighed twenty milliliter scintillation vial. The vial was vortexed and sonicated until the sirolimus was completely dissolved. Approximately six hundred milligrams of Vitamin E TPGS was then added to the solution of ethanol and sirolimus. The vial was vortexed again until a clear yellowish solution was obtained. Nitrogen gas was then used to reduce the amount of ethanol in the vial to approximately two hundred twenty-nine milligrams. In a separate vial, three hundred milligrams of Vitamin E TPGS was dissolved in eleven milliliters of purified water while undergoing vortexing. The Vitamin E TPGS and water solution was then added to the first vial containing the sirolimus, Vitamin E TPGS and ethanol. The first vial was then vortexed vigorously and continuously for three minutes. […] The foam gradually disappeared after sitting at room temperature.
An aqueous formulation of CCl-779, a sirolimus analog, is prepared utilizing ethanol, Vitamin E TPGS and water. […]

[2] = Method: Table 9, shown below, summarizes a number of injectable liquid formulations of paclitaxel utilizing combinations of ethanol, PEG 400 and water. Specifically, the formulations set forth in Table 9 were made and analyzed for their concentrations of its various constituents. The concentrations are determined by liquid chromatography and are presented as weight by volume figures. The concentration of ethanol is preferably two or less percent so as to avoid ethanol becoming an active ingredient in the formulation.
Another aqueous liquid or injectable formulation of paclitaxel is made utilizing ethanol, PEG 400 and water, and ethanol, Vitamin E TPGS, PEG400 and water. In making the first formulation, 100 mg of paclitaxel is added to 400 μl of ethanol in a pre-weighed 20 ml scintillation vial. The mixture of paclitaxel and ethanol is vortexed and heated in a 60 degree C. bath for ten minutes. Once the drug is completely solubilized, 20 ml of PEG 400 is then added to make the final paclitaxel concentration 5 mg/ml. […] In a separate experiment, a series of 20 ml scintillation vials containing Vitamin E TPGS are heated or warmed up in a 50 degree C. water bath for ten minutes. Concurrently, distilled water is also warmed in a 50 degree C. water bath. […]

[3] = Percent drug content change of coated cobalt-chromium stent, 0 to 12 weeks (FIG. 1); type: physicochemical; conditions: 0.02 weight percent BHT per total basecoat solids; sirolimus and polymer on 18 mm stent; 8 weeks and 12 weeks, ambient conditions (25° C.)
From the text: Referring to FIG. 1, there is illustrated in graphical format, the results of the same drug screening as described above with the solution applied to a cobalt-chromium, 18 mm stent. In this test, two sets of solution samples were utilized, one with sirolimus and polymer solution containing the antioxidant and one with sirolimus and polymer solution containing no antioxidant. The antioxidant utilized was 0.02 weight percent BHT per total basecoat solids. The test was utilized to determine the percent drug content change over a time period of 0 to 12 weeks under two conditions; namely, 40° C. with 75 percent relative humidity, and ambient conditions (25° C.).

For CCl-779, which “concentration in the final solution (HPLC assay)” value [1] is on record?
Its value is 15000 µg/mL.

With CC(=O)O[C@H]1C(=O)[C@@]2(C)[C@H]([C@H](OC(=O)c3ccccc3)[C@]3(O)C[C@H](OC(=O)[C@H](O)[C@@H](NC(=O)c4ccccc4)c4ccccc4)C(C)=C1C3(C)C)[C@]1(OC(C)=O)CO[C@@H]1C[C@@H]2O [paclitaxel] as the compound, how does the “concentration relative to the solubility of paclitaxel in water” value [2] read?
The value was “about 1000 fold”.

And the “paclitaxel concentration of true aqueous liquid formulations” value [2]?
The value was “up to 2.5 mg/ml”.

Which “drug degradation (percent drug content change)” value [3] does the source give for Cc1cc(C(C)(C)C)c(O)c(C(C)(C)C)c1 [BHT, butylated hydroxytoluene] here?
The value was “lessens drug degradation”.
